Assay results taken from patent US6110939A, “(Benzimidazolyl- and imidazopyridinyl) containing 1-(1,2-disubstituted piperidinyl) derivatives” (Janssen Pharmaceutica N.V., priority 1995, dated 2000).

System: substance P induced relaxation of the pig coronary arteries
Assay: Antagonism of substance P induced relaxation of the pig coronary arteries
Type: cell-based
Settings: Sus scrofa, 0.5 h; test compound 3 × 10^-8; response to 10^-9 M substance P; 30 min incubation
Experimental: Antagonism of substance P induced relaxation of the pig coronary arteries
Segments of coronary arteries taken from pigs (killed by injection of an overdose of sodium pentobarbital) were inverted and mounted for recording of isometric tension in organ baths (volume 20 ml) with the endothelium at the outside. The preparations were bathed in Krebs - Henseleit solution. The solution was kept at 37° C. and gassed with a mixture of O2 /CO2 (95/5). After stabilisation of the preparations, prostaglandin F2α (10^-5 M) was administered to induce a contraction. This was repeated until contractile responses became stable. Then prostaglandin F2α was again administered and substance P (3×10^-10 M and 10^-9 M cumulatively) was added. […] After washing away the agonists, a known concentration of a compound of formula (I) was added. After an incubation period of 30 minutes, prostaglandin F2α (10^-5 M) and the same concentrations of substance P as described above were again administered in the presence of the compound to be tested.

| Compound | inhibition at 0.03 µM |
| --- | --- |
| CCOCCn1c(N[C@@H]2CCN(C(=O)c3cc(C(F)(F)F)cc(C(F)(F)F)c3)[C@@H](Cc3ccc(F)c(F)c3)C2)nc2ccccc21 (relative stereo) [Compound 147] | 95.6% |
| CCOCCn1c(N[C@@H]2CCN(C(=O)c3cc(C(F)(F)F)cc(C(F)(F)F)c3)[C@H](Cc3ccc(F)c(F)c3)C2)nc2ccccc21 (relative stereo) [Compound 148] | 100% |
| Cc1ccc(Cn2c(C(O)C3CCN([C@H]4CCN(C(=O)c5cc(C(F)(F)F)cc(C(F)(F)F)c5)[C@@H](Cc5ccccc5)C4)CC3)nc3ccccc32)o1 (stereo partly shown) [Compound 21] | 95.8% |
| Cc1ccc(Cn2c(NC3CCN([C@@H]4CCN(C(=O)c5cc(C(F)(F)F)cc(C(F)(F)F)c5)[C@H](Cc5ccccc5)C4)C3)nc3cccnc32)o1 (stereo partly shown) [Compound 30] | 87.5% |
| CCOCCn1c(NC2CCCN(C(=O)c3cc(C(F)(F)F)cc(C(F)(F)F)c3)C(Cc3ccccc3)C2)nc2ccccc21 (stereo not shown) [Compound 149] | 12.7% |
| CCOCCn1c(NC2CCC(Cc3ccccc3)N(C(=O)c3cc(C(F)(F)F)cc(C(F)(F)F)c3)CC2)nc2ccccc21 (stereo not shown) [Compound 150] | 98.1% |

Same assay, conditions: Sus scrofa, 0.5 h; test compound 3 × 10^-9; response to 10^-9 M substance P; 30 min incubation

| Compound | inhibition at 0.003 µM |
| --- | --- |
| CCOCCn1c(N[C@@H]2CCN(C(=O)c3cc(C(F)(F)F)ccc3C(F)(F)F)[C@H](Cc3ccc(Cl)cc3)C2)nc2ccccc21 (relative stereo) [Compound 145] | 92.2% |
| CCOCCn1c(N[C@@H]2CCN(C(=O)c3cc(C(F)(F)F)cc(C(F)(F)F)c3)[C@H](Cc3ccc(C(F)(F)F)cc3)C2)nc2ccccc21 (relative stereo) [Compound 146] | 51.8% |
| Cc1ccc(Cn2c(C(O)C3CCN([C@H]4CCN(C(=O)c5cc(C(F)(F)F)cc(C(F)(F)F)c5)[C@@H](Cc5ccccc5)C4)CC3)nc3ccccc32)o1 (stereo partly shown) [Compound 22] | 89.4% |
| Cc1ccc(Cn2c(C(O)C3CCN(C4CCN(C(=O)c5cc(C(F)(F)F)cc(C(F)(F)F)c5)C(Cc5ccccc5)C4)CC3)nc3ccccc32)o1 (stereo not shown) [Compound 23] | 94.3% |
| Cc1ccc(Cn2c(NC3CCN([C@@H]4CCN(C(=O)c5cc(C(F)(F)F)cc(C(F)(F)F)c5)[C@@H](Cc5ccccc5)C4)C3)nc3cccnc32)o1 (stereo partly shown) [Compound 31] | 90.6% |

Same assay, conditions: test compound 3 × 10^-8; response to 10^-9 M substance P; 30 min incubation

| Compound | % inhibition |
| --- | --- |
| CCOCCn1c(NC2CCN(C3CCN(C(=O)c4cc(C(F)(F)F)cc(C(F)(F)F)c4)C(Cc4ccccc4)C3)C(Cc3ccccc3)C2)nc2ccccc21 (stereo not drawn) [Compound 13, 2α,4α-trans-1-[3,5-bis(trifluoromethyl)benzoyl]-4-[4-[[1-(2-ethoxyethyl)-1H-benzimidazol-2-yl]amino]-2-(phenylmethyl)-1-piperidinyl]-2-(phenylmethyl)piperidine] | 19.9% |
| CCOCCn1c(NC2CCN(C3CCN(C(=O)c4cc(C(F)(F)F)cc(C(F)(F)F)c4)C(Cc4ccccc4)C3)C(Cc3ccccc3)C2)nc2ccccc21 (stereo not drawn) [Compound 14, 2α,4β-trans-1-[3,5-bis(trifluoromethyl)benzoyl]-4-[4-[[1-(2-ethoxyethyl)-1H-benzimidazol-2-yl]amino]-2-(phenylmethyl)-1-piperidinyl]-2-(phenylmethyl)piperidine] | 53.3% |
